Results as given in patent US9586958B2, “Prodrug derivatives of substituted triazolopyridines” (BAYER PHARMA AKTIENGESELLSCHAFT, priority 2013, dated 2017).
Counter-ions that a name gives are not always drawn.

Columns and labels:
[1] = Stability in buffer at pH 7.4 (HPLC); format: physicochemical; settings: buffer pH 7.4, 37° C.
Experimental: 0.3 mg of the test compound are solved in 0.1 ml dimethylsulfoxide and 0.4 ml acetonitrile. For complete dissolution the HPLC vial with the sample solution is sonified for about 20 seconds. Then 1.0 ml of the buffer solution is added, and the sample is again treated in the ultrasonic bath.
90 g of sodium chloride, 13.61 g of potassium dihydrogen phosphate and 83.35 g of 1 M sodium hydroxide solution are made up to 1 liter with Millipore water and then diluted 1:10.
10 μl portions of the sample solution are analysed by HPLC to determine the amount of the test compound over a period of 24 hours at 37° C. The peak areas in percentage are used for quantification.
Agilent 1100 with DAD (G1315B), binary pump (G1312A), autosampler (G1329A), column oven (G1316A), thermostat (G1330B); column: Kromasil 100 C18, 250 mm×4 mm, 5 μm; column temperature: 37° C.; eluent A: water+5 ml of perchloric acid/liter, eluent B: acetonitrile.
The ratio of the peak areas (F) at different time points in relation to the peak areas at the starting time are shown in Table 2 for representative examples: […]

[2] = In vitro stability in rat plasma (HPLC detection); format: in vitro ADME; settings: 37° C.
Experimental: 1 mg of test compound is dissolved in 1.25 ml dimethylsulfoxide. Then 1.25 ml water are added. 0.5 ml of this sample solution are mixed with 0.5 ml heparinized and 37° C. warm plasma (wistar rat plasma or human plasma). A first sample (10 μl) is immediately taken for HPLC analysis. In the period up to 4 h after the start of incubation further 10 μl aliquots are taken after 30, 60, 90, 120 and 240 minutes and the amount of the test compound is determined.
Agilent 1100 with DAD (G1315A), binary pump (G1312A), autosampler (G1329A), column oven (G1316A), thermostat (G1330B); column: Kromasil 100 C18, 250 mm×4 mm, 5 μm; column temperature: 45° C.; eluent A: water+5 ml of perchloric acid/liter, eluent B: acetonitrile.

[3] = Metabolic stability in vitro, rat liver microsomes (calculation of Fmax); format: in vitro ADME; settings: comparison table with comparative examples
Experimental: The metabolic stability of test compounds in vitro was determined by incubating them at 1 μM with a suspension liver microsomes in 100 mM phosphate buffer, pH7.4 (NaH2PO4×H2O+Na2HPO4×2H2O) at a protein concentration of 0.5 mg/mL and at 37° C. The reaction was activated by adding a co-factor mix containing 1.2 mg NADP, 3 IU glucose-6-phosphate dehydrogenase, 14.6 mg glucose-6-phosphate and 4.9 mg MgCl2 in phosphate buffer, pH 7.4. Organic solvent in the incubations was limited to <0.2% dimethylsulfoxide (DMSO) and <1% methanol. During incubation, the microsomal suspensions were continuously shaken and aliquots were taken at 2, 8, 16, 30, 45 and 60 min, to which equal volumes of cold methanol were immediately added. Samples were frozen at −20° C. over night, subsequently centrifuged for 15 minutes at 3000 rpm and the supernatant was analyzed with an Agilent 1200 HPLC-system with LCMS/MS detection.
The half-life of a test compound was determined from the concentration-time plot. From the half-life the intrinsic clearances were calculated. Together with the additional parameters liver blood flow, specific liver weight and microsomal protein content the hepatic in vivo blood clearance (CL) and the maximal oral bioavailability (Fmax) were calculated for the different species. The following parameter values were used: Liver blood flow—1.3 L/h/kg (human), 2.1 L/h/kg (dog), 4.2 L/h/kg (rat); specific liver weight—21 g/kg (human), 39 g/kg (dog), 32 g/kg (rat); microsomal protein content—40 mg/g.
With the described assay only phase-I metabolism of microsomes is reflected, e.g. typically oxidoreductive reactions by cytochrome P450 enzymes and flavin mono-oxygenases (FMO) and hydrolytic reactions by esterases (esters and amides).

COc1cc(S(C)(=O)=O)ccc1N(C(=O)OC(C)OC(=O)[C@@H](N)C(C)(C)C)c1nc2ccc(-c3ccc(NC(=O)[C@H](C)c4ccc(F)cc4)cc3)cn2n1.Cl (single isomer, unassigned) [Example 3.4, (1S or 1R)-1-({[6-(4-{[(2R)-2-(4-fluorophenyl)propanoyl]amino}phenyl)[1,2,4]triazolo[1,5-α]pyridin-2-yl][2-methoxy-4-(methylsulfonyl)phenyl]carbamoyl}oxy)ethyl-3-methyl-L-valinate hydrochloride]
% Test Compound after 24 h [F(t = 24 h) × 100/F(t = 0 h)] [1]: 0.0%
% Test Compound after 4 h [F(t = 24 h) × 100/F(t = 0 h)] ([2]; hydrochloride): 29%

COc1cc(S(C)(=O)=O)ccc1N(C(=O)OC(OC(=O)[C@@H](N)C(C)C)C(C)C)c1nc2ccc(-c3ccc(NC(=O)[C@H](C)c4ccc(F)cc4)cc3)cn2n1 (single isomer, unassigned) [Example 5.2, (1R or S)-1-({[6-(4-{[(2R)-2-(4-fluorophenyl)propanoyl]amino}phenyl)[1,2,4]triazolo[1,5-α]pyridin-2-yl][2-methoxy-4-(methylsulfonyl)phenyl]carbamoyl}oxy)-2-methylpropyl-L-valinate hydrochloride]
% Test Compound after 24 h [F(t = 24 h) × 100/F(t = 0 h)] [1]: 48%
% Test Compound after 4 h [F(t = 24 h) × 100/F(t = 0 h)] [2]: 44%

COc1cc(S(C)(=O)=O)ccc1N(C(=O)OCOC(=O)[C@@H](N)C(C)C)c1nc2ccc(-c3ccc(NC(=O)[C@H](C)c4ccc(F)cc4)cc3)cn2n1 [Example 1.2, ({[6-(4-{[(2R)-2-(4-fluorophenyl)propanoyl]amino}phenyl)[1,2,4]triazolo[1,5-α]pyridin-2-yl][2-methoxy-4-(methylsulfonyl)phenyl]carbamoyl}oxy)methyl L-valinate hydrochloride]
% Test Compound after 24 h [F(t = 24 h) × 100/F(t = 0 h)] [1]: 0.0%
% Test Compound after 4 h [F(t = 24 h) × 100/F(t = 0 h)] [2]: 0.0%

CN[C@H](C(=O)OCOC(=O)N(c1nc2ccc(-c3ccc(NC(=O)[C@H](C)c4ccc(F)cc4)cc3)cn2n1)c1ccc(S(C)(=O)=O)cc1OC)C(C)C.Cl [Example 1.4, ({[6-(4-{[(2R)-2-(4-fluorophenyl)propanoyl]amino}phenyl)[1,2,4]triazolo[1,5-α]pyridin-2-yl][2-methoxy-4-(methylsulfonyl)phenyl]carbamoyl}oxy)methyl N-methyl-L-valinate hydrochloride]
% Test Compound after 24 h [F(t = 24 h) × 100/F(t = 0 h)] [1]: 0.0%
% Test Compound after 4 h [F(t = 24 h) × 100/F(t = 0 h)] [2]: 14%

COc1cc(S(C)(=O)=O)ccc1N(C(=O)OCOC(=O)[C@@H](N)C(C)(C)C)c1nc2ccc(-c3ccc(NC(=O)[C@H](C)c4ccc(F)cc4)cc3)cn2n1.Cl [Example 1.5, ({[6-(4-{[(2R)-2-(4-fluorophenyl)propanoyl]amino}phenyl)[1,2,4]triazolo[1,5-α]pyridin-2-yl][2-methoxy-4-(methylsulfonyl)phenyl]carbamoyl}oxy)methyl 3-methyl-L-valinate hydrochloride]
% Test Compound after 24 h [F(t = 24 h) × 100/F(t = 0 h)] [1]: 0.0%
% Test Compound after 4 h [F(t = 24 h) × 100/F(t = 0 h)] [2]: 0.0%

COc1cc(S(C)(=O)=O)ccc1N(C(=O)OCOC(=O)C(C)(C)CN)c1nc2ccc(-c3ccc(NC(=O)[C@H](C)c4ccc(F)cc4)cc3)cn2n1.O=C(O)C(F)(F)F [Example 1.8, ({[6-(4-{[(2R)-2-(4-fluorophenyl)propanoyl]amino}phenyl)[1,2,4]triazolo[1,5-α]pyridin-2-yl][2-methoxy-4-(methylsulfonyl)phenyl]carbamoyl}oxy)methyl 3-amino-2,2-dimethylpropanoate trifluoroacetate]
% Test Compound after 24 h [F(t = 24 h) × 100/F(t = 0 h)] [1]: 0.0%
% Test Compound after 4 h [F(t = 24 h) × 100/F(t = 0 h)] [2]: 3%

COc1cc(S(C)(=O)=O)ccc1N(C(=O)OCOC(=O)[C@@H](NC(=O)[C@@H](N)CCCCN)C(C)C)c1nc2ccc(-c3ccc(NC(=O)[C@H](C)c4ccc(F)cc4)cc3)cn2n1.Cl.Cl [Example 2.1, ({[6-(4-{[(2R)-2-(4-fluorophenyl)propanoyl]amino}phenyl)[1,2,4]triazolo[1,5-α]pyridin-2-yl][2-methoxy-4-(methylsulfonyl)phenyl]carbamoyl}oxy)methyl L-lysyl-L-valinate dihydrochloride]
% Test Compound after 24 h [F(t = 24 h) × 100/F(t = 0 h)] [1]: 0.0%
% Test Compound after 4 h [F(t = 24 h) × 100/F(t = 0 h)] [2]: 0.0%

COc1cc(S(C)(=O)=O)ccc1N(C(=O)OCOC(=O)[C@@H](NC(=O)[C@@H](N)C(C)C)C(C)C)c1nc2ccc(-c3ccc(NC(=O)[C@H](C)c4ccc(F)cc4)cc3)cn2n1 [Example 2.3, ({[6-(4-{[(2R)-2-(4-fluorophenyl)propanoyl]amino}phenyl)[1,2,4]triazolo[1,5-α]pyridin-2-yl][2-methoxy-4-(methylsulfonyl)phenyl]carbamoyl}oxy)methyl L-valyl-L-valinate hydrochloride]
% Test Compound after 24 h [F(t = 24 h) × 100/F(t = 0 h)] [1]: 16%
% Test Compound after 4 h [F(t = 24 h) × 100/F(t = 0 h)] [2]: 37%

CNCCCC(=O)N(c1nc2ccc(-c3ccc(NC(=O)[C@H](C)c4ccc(F)cc4)cc3)cn2n1)c1ccc(S(C)(=O)=O)cc1OC.O=C(O)C(F)(F)F [Example 4.1, N-[6-(4-{[(2R)-2-(4-fluorophenyl)propanoyl]amino}phenyl)[1,2,4]triazolo[1,5-α]pyridin-2-yl]-N-[2-methoxy-4-(methylsulfonyl)phenyl]-4-(methylamino)butanamide trifluoroacetate]
% Test Compound after 24 h [F(t = 24 h) × 100/F(t = 0 h)] [1]: 23%
% Test Compound after 4 h [F(t = 24 h) × 100/F(t = 0 h)] [2]: 12%

CNCCCC(=O)N(c1nc2ccc(-c3ccc(NC(=O)[C@H](C)c4ccc(F)cc4)cc3)cn2n1)c1ccc(S(C)(=O)=O)cc1OC.Cl [Example 4.1.1, N-[6-(4-{[(2R)-2-(4-fluorophenyl)propanoyl]amino}phenyl)[1,2,4]triazolo[1,5-α]pyridin-2-yl]-N-[2-methoxy-4-(methylsulfonyl)phenyl]-4-(methylamino)butanamide hydrochloride]
% Test Compound after 24 h [F(t = 24 h) × 100/F(t = 0 h)] [1]: 21%
% Test Compound after 4 h [F(t = 24 h) × 100/F(t = 0 h)] [2]: 32%

C[C@@H](C(=O)Nc1ccc(-c2ccc3nc(N(C(=O)OCOC(=O)[C@@H](N)C(C)(C)C)c4ccc(S(C)(=O)=O)cc4OCC(F)(F)F)nn3c2)cc1)c1ccc(F)cc1.Cl [Example 6.1, ({[6-(4-{[(2R)-2-(4-fluorophenyl)propanoyl]amino}phenyl)[1,2,4]triazolo[1,5-α]pyridin-2-yl][4-(methylsulfonyl)-2-(2,2,2-trifluoroethoxy)phenyl]carbamoyl}oxy)methyl 3-methyl-L-valinate hydrochloride]
% Test Compound after 24 h [F(t = 24 h) × 100/F(t = 0 h)] [1]: 0.0%
% Test Compound after 4 h [F(t = 24 h) × 100/F(t = 0 h)] [2]: 4%

C[C@@H](C(=O)Nc1ccc(-c2ccc3nc(N(C(=O)OCOC(=O)[C@@H](N)C(C)(C)C)c4ccc(C(=O)N5CC(F)C5)cc4OCC(F)(F)F)nn3c2)cc1)c1ccc(F)cc1.Cl [Example 6.3, [({4-[(3-fluoroazetidin-1-yl)carbonyl]-2-(2,2,2-trifluoroethoxy)phenyl}[6-(4-{[(2R)-2-(4-fluorophenyl)propanoyl]amino}phenyl)[1,2,4]triazolo[1,5-α]pyridin-2-yl]carbamoyl)oxy]methyl 3-methyl-L-valinate hydrochloride]
% Test Compound after 24 h [F(t = 24 h) × 100/F(t = 0 h)] [1]: 0.0%
% Test Compound after 4 h [F(t = 24 h) × 100/F(t = 0 h)] [2]: 0.0%

CNCCOC(=O)N(c1nc2ccc(-c3ccc(NC(=O)[C@H](C)c4ccc(F)cc4)cc3)cn2n1)c1ccc(S(C)(=O)=O)cc1OC.Cl [Example 7.1, 2-(methylamino)ethyl [6-(4-{[(2R)-2-(4-fluorophenyl)propanoyl]amino}phenyl)[1,2,4]triazolo[1,5-α]pyridin-2-yl][2-methoxy-4-(methylsulfonyl)phenyl]carbamate hydrochloride]
% Test Compound after 24 h [F(t = 24 h) × 100/F(t = 0 h)] [1]: 48%
% Test Compound after 4 h [F(t = 24 h) × 100/F(t = 0 h)] [2]: 80%

COC(C(=O)Nc1ccc(-c2ccc3nc(Nc4ccccc4C#N)nn3c2)cc1)c1ccccc1 (stereo not drawn) [reference compound]
Rat liver microsomes; Fmax [%] [3]: 19%
